Measurements as given in patent publication US9585903B2, “Pharmaceutical composition comprising sophorolipid in combination with an antibiotic” (priority 2013, dated 2017).
Where a name gives a salt, the structure may show the parent alone. Read-outs that look alike come from different tables or passages of the source.

Columns and labels:
Type in all cases: cell-based
[1] = system: Escherichia coli (ATCC-8739); experiment: MIC determination on culture plate; conditions: against E. coli (ATCC8739)
Text: (§1) The test microorganisms—Staphylococcus aureus (ATCC-29737) (gram positive) and Escherichia coli (ATCC-8739) (gram negative) used in the invention were procured from National Collection of Industrial Microorganisms, NCL. These two bacteria are of concern due to following reasons—Staphylococcus aureus, capable of causing wide range of severe skin infections; is rapidly evolving resistance to contemporary topical as well as systemic antibiotics (Englander and Friedman 2010). And Escherichia coli, another index bacterium; is more than just a harmless intestinal inhabitant; it can also be a highly versatile, and frequently deadly pathogen. Several different E. coli strains cause diverse intestinal and extra-intestinal diseases by means of virulence factors that affect a wide range of cellular processes (Kaper et al. 2004).
(§2) Accordingly, the stock solutions were prepared in sterile distilled water to assess the MIC values of the antibiotic and SL. The stock strength used was 1 mg/ml for antibiotics and 10 mg/ml for SL. The conjugative/synergistic effect of SL and tetracycline was checked against S. aureus while the conjugative effect of SL and cefaclor was checked against E. coli. In the first step, A600 i.e. absorbance of bacterial suspension giving isolated colonies was fixed and the same A600 was maintained throughout the experiment. Then the MIC values were determined for SL as well as antibiotic against the bacteria. Minimum Inhibitory Concentration (MIC) is defined as the lowest concentration of compound that inhibits visible growth of microorganisms on the culture plate (Rai et al. 2010). For assessing the conjugative effect, the sublethal concentrations of both antimicrobial agents were used so as to rightly evaluate the conjugative effect. Against S. aureus, sublethal concentration of SL was decided to be 300 μg/ml and for tetracycline it was 15 μg/ml.
(§3) The stock solutions were prepared in sterile distilled water to assess the MIC values of the antibiotic and SL. The stock strength used was 1 mg/ml for antibiotics and 10 mg/ml for SL. […]

[2] = system: Escherichia coli (ATCC-8739); experiment: Assay of conjugative action of SL and antibiotic (micro dilution and spread plate, CFU count, % cell survival)
Method: (§4) Accordingly, the stock solutions were prepared in sterile distilled water to assess the MIC values of the antibiotic and SL. The stock strength used was 1 mg/ml for antibiotics and 10 mg/ml for SL. […] In the first step, A600 i.e. absorbance of bacterial suspension giving isolated colonies was fixed and the same A600 was maintained throughout the experiment. Then the MIC values were determined for SL as well as antibiotic against the bacteria. […] For assessing the conjugative effect, the sublethal concentrations of both antimicrobial agents were used so as to rightly evaluate the conjugative effect.
(§5) According to another aspect, the assay of conjugative action of SL and antibiotic was performed using standard micro dilution and spread plate method. The reaction mixtures were prepared by adding SL and antibiotic stock solutions to sterile distilled water in requisite volumes followed by the addition of bacterial suspension. The control reactions were also set with both bacterial systems to evaluate the effect of antibiotic and SL alone. Controls without addition of any antimicrobial agent were also maintained. The reaction mixtures were incubated at 28° C., 180 rpm for 6 h. The samples were removed at periodic intervals of 2 h, 4 h and 6 h and number of Colony Forming Units (CFUs) were determined by spreading 50 μl of mixture on Nutrient agar plates. […]

[3] = system: Staphylococcus aureus (ATCC-29737); experiment: MIC determination on culture plate
Text: as §1, §2, §3

[4] = system: Staphylococcus aureus (ATCC-29737); experiment: Assay of conjugative action of SL and antibiotic (micro dilution and spread plate, CFU count, % cell survival); conditions: FIG. 2(a); tetracycline 15 μg/ml, SL 300 μg/ml; up to 6 h exposure
Method: as §4, §5

MIC [1] [µg/mL] | SMILES | exposure required to get equivalent effect (~98% killing) ([2]; E. coli, cefaclor alone 50 μg/ml) [h] | inhibition of E. coli (in words) ([2]; FIG. 2(b), cefaclor 50 μg/ml, SL 500 μg/ml, up to 6 h exposure) | MIC ([3]; Staphylococcus aureus, against S. aureus (ATCC29737), read-out: MIC value) [µg/mL] | MIC ([3]; against Staphylococcus aureus) [μn/ml] | inhibition of S. aureus (in words) [4]
200 | N[C@@H](C(=O)N[C@@H]1C(=O)N2C(C(=O)O)=C(Cl)CS[C@H]12)c1ccccc1 [Cefaclor] | 6 | almost total inhibition at the end of 6 h exposure | – | – | –
– | CN(C)[C@@H]1C(O)=C(C(N)=O)C(=O)[C@@]2(O)C(O)=C3C(=O)c4c(O)cccc4[C@@](C)(O)[C@H]3C[C@@H]12 [tetracycline-HCl] | – | – | 150 | 150 | cannot achieve total inhibition even after 6 h
